Source: patent US9650334B2 (AbbVie Deutschland GmbH & Co. KG, priority 2013, dated 2017)

biological target: T1, human GlyT1c transporter (Homo sapiens, UniProt P48067); test: Radioligand binding assays using recombinant CHO cell membranes expressing human GlyT1; settings: Ki, radioligand binding to human GlyT1c transporter-expressing CHO cell membranes
T1 sequence (P48067 1-706): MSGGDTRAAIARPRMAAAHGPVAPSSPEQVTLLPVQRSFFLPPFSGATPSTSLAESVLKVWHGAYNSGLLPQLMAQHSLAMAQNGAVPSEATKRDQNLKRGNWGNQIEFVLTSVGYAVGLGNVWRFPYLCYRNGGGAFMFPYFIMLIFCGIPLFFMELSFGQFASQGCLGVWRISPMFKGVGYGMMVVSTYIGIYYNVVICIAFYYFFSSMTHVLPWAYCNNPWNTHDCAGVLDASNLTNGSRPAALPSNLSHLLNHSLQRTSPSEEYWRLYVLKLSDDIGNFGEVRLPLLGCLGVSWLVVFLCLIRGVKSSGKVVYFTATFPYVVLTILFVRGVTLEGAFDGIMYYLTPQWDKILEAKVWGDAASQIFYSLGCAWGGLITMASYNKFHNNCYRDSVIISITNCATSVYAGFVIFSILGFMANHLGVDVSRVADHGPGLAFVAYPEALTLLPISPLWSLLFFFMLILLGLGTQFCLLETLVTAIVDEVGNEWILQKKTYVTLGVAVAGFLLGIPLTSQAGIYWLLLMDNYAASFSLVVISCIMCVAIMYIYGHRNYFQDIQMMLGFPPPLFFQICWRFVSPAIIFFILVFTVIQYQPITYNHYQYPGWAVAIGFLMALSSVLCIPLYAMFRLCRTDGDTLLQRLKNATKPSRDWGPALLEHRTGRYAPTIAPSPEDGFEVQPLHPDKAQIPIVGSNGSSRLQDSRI

Row | Compound | Ki
1 | CCCCCN(C)[C@H]1CN(S(=O)(=O)c2cn(C)cn2)C[C@@H]1C1OCCCO1 [Example 907, (3R,4S)-4-(1,3-dioxan-2-yl)-N-methyl-1-[(1-methyl-1H-imidazol-4-yl)sulfonyl]-N-pentylpyrrolidin-3-amine] | ≤ 1000 nM
2 | CCCCCN(CCCCC)[C@H]1CN(S(=O)(=O)c2cn(C)cn2)C[C@@H]1C1OCCCO1 [Example 908, (3R,4S)-4-(1,3-dioxan-2-yl)-1-[(1-methyl-1H-imidazol-4-yl)sulfonyl]-N,N-dipentylpyrrolidin-3-amine] | ≤ 10000 nM
3 | CCCCCCN[C@H]1CN(S(=O)(=O)c2cn(C)cn2)C[C@@H]1C1OCCCO1 [Example 910, (3R,4S)-4-(1,3-dioxan-2-yl)-N-hexyl-1-[(1-methyl-1H-imidazol-4-yl)sulfonyl]pyrrolidin-3-amine] | ≤ 100 nM
4 | Cn1cnc(S(=O)(=O)N2C[C@H](Nc3ccc(F)c(Cl)c3)[C@@H](C3OCCCO3)C2)c1 [Example 916, (3R,4S)-N-(3-chloro-4-fluorophenyl)-4-(1,3-dioxan-2-yl)-1-[(1-methyl-1H-imidazol-4-yl)sulfonyl]pyrrolidin-3-amine] | ≤ 100 nM
5 | Cc1cccc(N[C@H]2CN(S(=O)(=O)c3cn(C)cn3)C[C@@H]2C2OCCCO2)c1 [Example 917, (3R,4S)-4-(1,3-dioxan-2-yl)-1-[(1-methyl-1H-imidazol-4-yl)sulfonyl]-N-(3-methylphenyl)pyrrolidin-3-amine] | ≤ 100 nM
6 | Cn1cnc(S(=O)(=O)N2CC(Cc3cccc(C(F)(F)F)c3)C(C3OCCCO3)C2)c1 (stereo not shown) [Example 918, 4-({3-(1,3-dioxan-2-yl)-4-[3-(trifluoromethyl)benzyl]pyrrolidin-1-yl}sulfonyl)-1-methyl-1H-imidazole] | ≤ 1000 nM
7 | Cn1cc(S(=O)(=O)N2CC(Cc3cccc(C(F)(F)F)c3)C(C3OCCCO3)C2)nn1 (stereo not shown) [Example 919, 4-({3-(1,3-dioxan-2-yl)-4-[3-(trifluoromethyl)benzyl]pyrrolidin-1-yl}sulfonyl)-1-methyl-1H-1,2,3-triazole] | ≤ 10000 nM
8 | C[C@@H]1C[C@@H](C)OC([C@H]2CN(S(=O)(=O)c3cn(C)cn3)C[C@@H]2Nc2cccc(OC(F)(F)F)c2)O1 (stereo partly drawn) [Example 921, (3R,4S)-4-[(4R,6R)-4,6-dimethyl-1,3-dioxan-2-yl]-1-[(1-methyl-1H-imidazol-4-yl)sulfonyl]-N-[3-(trifluoromethoxy)phenyl]pyrrolidin-3-amine] | ≤ 100 nM
9 | Cc1cc(N[C@H]2CN(S(=O)(=O)c3cn(C)cn3)C[C@@H]2C2OCCCO2)ccc1F [Example 923, (3R,4S)-4-(1,3-dioxan-2-yl)-N-(4-fluoro-3-methylphenyl)-1-[(1-methyl-1H-imidazol-4-yl)sulfonyl]pyrrolidin-3-amine] | ≤ 100 nM
10 | Cn1cnc(S(=O)(=O)N2C[C@H](Nc3cccc(OCC(F)F)c3)[C@@H](C3OCCCO3)C2)c1 [Example 928, (3R,4S)-N-[3-(2,2-difluoroethoxy)phenyl]-4-(1,3-dioxan-2-yl)-1-[(1-methyl-1H-imidazol-4-yl)sulfonyl]pyrrolidin-3-amine] | ≤ 10 nM

Results, then the compound that gave them:

Row | Ki | Compound
11 | ≤ 10 nM | Cn1cnc(S(=O)(=O)N2C[C@H](Nc3cc(C(F)(F)F)c(Cl)cn3)[C@@H](C3OCCCO3)C2)c1 [Example 911, 5-chloro-N-{(3R,4S)-4-(1,3-dioxan-2-yl)-1-[(1-methyl-1H-imidazol-4-yl)sulfonyl]pyrrolidin-3-yl}-4-(trifluoromethyl)pyridin-2-amine]
12 | ≤ 10 nM | Cn1cnc(S(=O)(=O)N2C[C@H](Nc3ccc(F)c(C(F)(F)F)c3)[C@@H](C3OCCCO3)C2)c1 [Example 912, (3R,4S)-4-(1,3-dioxan-2-yl)-N-[4-fluoro-3-(trifluoromethyl)phenyl]-1-[(1-methyl-1H-imidazol-4-yl)sulfonyl]pyrrolidin-3-amine]
13 | ≤ 10 nM | Cn1cnc(S(=O)(=O)N2CC(Nc3cccc(OC(F)(F)F)c3)C(N3CCCCC3)C2)c1 (stereo not shown) [Example 913, 1-[(1-methyl-1H-imidazol-4-yl)sulfonyl]-4-(piperidin-1-yl)-N-[3-(trifluoromethoxy)phenyl]pyrrolidin-3-amine]
14 | ≤ 10 nM | Cn1cnc(S(=O)(=O)N2C[C@H](Nc3cccc(Cl)c3)[C@@H](C3OCCCO3)C2)c1 [Example 914, (3R,4S)-N-(3-chlorophenyl)-4-(1,3-dioxan-2-yl)-1-[(1-methyl-1H-imidazol-4-yl)sulfonyl]pyrrolidin-3-amine]
15 | ≤ 10 nM | Cn1cnc(S(=O)(=O)N2C[C@H](Nc3cccc(C(F)(F)F)c3)[C@@H](C3OCCCO3)C2)c1 [Example 915, (3R,4S)-4-(1,3-dioxan-2-yl)-1-[(1-methyl-1H-imidazol-4-yl)sulfonyl]-N-[3-(trifluoromethyl)phenyl]pyrrolidin-3-amine]
16 | ≤ 10 nM | Cn1cnc(S(=O)(=O)N2C[C@H](Nc3cccc(OC(F)(F)F)c3)[C@@H](C3OCC4(CC4)CO3)C2)c1 [Example 920, (3R,4S)-4-(5,7-dioxaspiro[2.5]oct-6-yl)-1-[(1-methyl-1H-imidazol-4-yl)sulfonyl]-N-[3-(trifluoromethoxy)phenyl]pyrrolidin-3-amine]
17 | ≤ 10 nM | C[C@H]1C[C@H](C)OC([C@H]2CN(S(=O)(=O)c3cn(C)cn3)C[C@@H]2Nc2cccc(OC(F)(F)F)c2)O1 (stereo partly drawn) [Example 922, (3R,4S)-4-[(4S,6S)-4,6-dimethyl-1,3-dioxan-2-yl]-1-[(1-methyl-1H-imidazol-4-yl)sulfonyl]-N-[3-(trifluoromethoxy)phenyl]pyrrolidin-3-amine]
18 | ≤ 10 nM | Cn1cnc(S(=O)(=O)N2C[C@H](Nc3ccc(F)c(OC(F)(F)F)c3)[C@@H](C3OCCCO3)C2)c1 [Example 924, (3R,4S)-4-(1,3-dioxan-2-yl)-N-[4-fluoro-3-(trifluoromethoxy)phenyl]-1-[(1-methyl-1H-imidazol-4-yl)sulfonyl]pyrrolidin-3-amine]
19 | ≤ 10 nM | Cn1cnc(S(=O)(=O)N2C[C@H](Nc3cccc(OC(F)F)c3)[C@@H](C3OCCCO3)C2)c1 [Example 925, (3R,4S)-N-[3-(difluoromethoxy)phenyl]-4-(1,3-dioxan-2-yl)-1-[(1-methyl-1H-imidazol-4-yl)sulfonyl]pyrrolidin-3-amine]
20 | ≤ 10 nM | CC(C)c1cccc(N[C@H]2CN(S(=O)(=O)c3cn(C)cn3)C[C@@H]2C2OCCCO2)c1 [Example 926, (3R,4S)-4-(1,3-dioxan-2-yl)-1-[(1-methyl-1H-imidazol-4-yl)sulfonyl]-N-[3-(propan-2-yl)phenyl]pyrrolidin-3-amine]
21 | ≤ 10 nM | Cn1cnc(S(=O)(=O)N2CC(Nc3ccc(F)c(C(F)(F)F)c3)C(c3ccc(F)cn3)C2)c1 (stereo not shown) [Example 927, 4-(5-fluoropyridin-2-yl)-N-[4-fluoro-3-(trifluoromethyl)phenyl]-1-[(1-methyl-1H-imidazol-4-yl)sulfonyl]pyrrolidin-3-amine]

same assay, conditions: radioligand binding to human GlyT1c transporter-expressing CHO cell membranes

Row | Ki | Compound
22 | ≤ 10 nM | (3R,4S)-N-[2-chloro-4-(trifluoromethyl)benzyl]-1-[(1-methyl-1H-imidazol-4-yl)sulfonyl]-4-phenylpyrrolidin-3-amine [Example 394]
23 | ≤ 100 nM | N-{(3R,4S)-4-(4-fluorophenyl)-1-[(1-methyl-1H-imidazol-4-yl)sulfonyl]pyrrolidin-3-yl}-6-(2-methylpropoxy)pyrimidin-4-amine [Example 718]
24 | ≤ 10000 nM | Trans-N-[4-chloro-3-(trifluoromethoxy)phenyl]-1-[(1-methyl-1H-imidazol-4-yl)sulfonyl]-4-[(3S)-tetrahydro-2H-pyran-3-yl]pyrrolidin-3-amine [Example 793]
25 | ≤ 10000 nM | Trans-N-[4-chloro-3-(trifluoromethyl)phenyl]-1-[(1-methyl-1H-imidazol-4-yl)sulfonyl]-4-[(3S)-tetrahydro-2H-pyran-3-yl]pyrrolidin-3-amine [Example 792]
